Experimental data reported in paper PMC9293227 (Clinical Pharmacology in Drug Development, 2021).
Where two headings read alike, the source gives them in different places.

Experiments:
[1] = for AUCinf (molar ratio of 2‐hydroxy‐atorvastatin to atorvastatin) / Cmax (molar ratio of 2‐hydroxy‐atorvastatin to atorvastatin): mean (%CV); for increase in Cmax with filgotinib coadministration relative to statin alone: pravastatin 40 mg / rosuvastatin 10 mg, filgotinib 200 mg once daily
[2] = Safety assessment; assay type: in vivo, human (healthy adult participants); details: by treatment arm
[3] = clinical trials and postmarketing surveillance; cited from earlier work
[4] = no reference given, cited from earlier work
[5] = tested on: cytochrome P450 enzymes or uridine 5’‐diphospho‐glucuronosyltransferases; details: in vitro; cited from earlier work
[6] = cited from earlier work
[7] = tested on: JAK1; details: human whole blood assay; cited from earlier work
[8] = 2-hydroxy-atorvastatin after atorvastatin 40 mg alone, n = 25, median (Q1-Q3)
[9] = 2-hydroxy-atorvastatin, atorvastatin + filgotinib vs atorvastatin alone
[10] = atorvastatin 40 mg + filgotinib 200 mg once daily, n = 26
[11] = atorvastatin 40 mg alone, n = 25
[12] = atorvastatin + filgotinib vs atorvastatin alone
[13] = both, human, plasma, oral, 10 mg
[14] = rosuvastatin + filgotinib vs rosuvastatin alone
[15] = both, human, plasma, oral, 40 mg

CC(C)c1c(C(=O)Nc2ccccc2O)c(-c2ccccc2)c(-c2ccc(F)cc2)n1CCC(O)CC(O)CC(=O)O (stereo not shown) [2‐Hydroxy‐Atorvastatin, 2‐hydroxy‐atorvastatin]
t1/2 [1, 8]: 9.1 (7.1‐10.9) h | tmax [1, 8]: 2.0 (1.5‐4.1) h | AUCinf GLSM Ratio (90% CI) [1, 9]: 1.11 (1.02‐1.22) | AUClast GLSM Ratio (90% CI) [1, 9]: 1.12 (1.02‐1.23) | Cmax GLSM Ratio (90% CI) [1, 9]: 0.98 (0.81‐1.19) | AUCinf (molar ratio of 2‐hydroxy‐atorvastatin to atorvastatin) [1, 10]: 1.6 (26.3) | Cmax (molar ratio of 2‐hydroxy‐atorvastatin to atorvastatin) [1, 10]: 0.8 (29.3) | AUCinf (molar ratio of 2‐hydroxy‐atorvastatin to atorvastatin) [1, 11]: 1.3 (35.1) | Cmax (molar ratio of 2‐hydroxy‐atorvastatin to atorvastatin) [1, 11]: 0.7 (43.9) | AUCinf (molar ratio of 2‐hydroxy‐atorvastatin to atorvastatin) GLSM Ratio (90% CI) [1, 12]: 1.22 (1.15‐1.29) | Cmax (molar ratio of 2‐hydroxy‐atorvastatin to atorvastatin) GLSM Ratio (90% CI) [1, 12]: 1.19 (1.06‐1.33)

CC(C)c1c(C(=O)Nc2ccccc2)c(-c2ccccc2)c(-c2ccc(F)cc2)n1CC[C@@H](O)C[C@@H](O)CC(=O)O [Atorvastatin]
participants with treatment‐emergent AE related to study drug, n (%) [2]: 3 (11.5%) | headache, n [%] ([2]; all mild or moderate): 2 [7.7%]

CC(C)c1nc(N(C)S(C)(=O)=O)nc(-c2ccc(F)cc2)c1/C=C/[C@@H](O)C[C@@H](O)CC(=O)O [Rosuvastatin]
myopathy related to rosuvastatin, patients [3]: ≤ 0.03% | AUC(0-inf) [1, 13]: 66 ng·h/mL | Cmax [1, 13]: 7.5 ng/mL | half-life ([1]; both, human, plasma, oral, t1/2, rosuvastatin 10 mg (cocktail) + filgotinib 200 mg once daily, n = 26, median (Q1-Q3)): 15.4 h | increase in Cmax with filgotinib coadministration relative to statin alone [1]: 68% | tmax ([1]; rosuvastatin 10 mg alone (cocktail), n = 25, median (Q1-Q3)): 3.0 (2.0‐4.0) h | AUCinf GLSM Ratio (90% CI) [1, 14]: 1.42 (1.30‐1.57) | AUClast GLSM Ratio (90% CI) [1, 14]: 1.46 (1.32‐1.62) | Cmax GLSM Ratio (90% CI) [1, 14]: 1.68 (1.43‐1.97)

CC[C@H](C)C(=O)O[C@H]1C[C@H](O)C=C2C=C[C@H](C)[C@H](CC[C@@H](O)C[C@@H](O)CC(=O)O)[C@H]21 [Pravastatin]
AUC(0-inf) [1, 15]: 201 ng·h/mL | AUC(0-t) [1, 15]: 200 ng·h/mL | tmax [1, 15]: 1 h | half-life ([1]; both, human, plasma, oral, t1/2, pravastatin 40 mg (cocktail) + filgotinib 200 mg once daily, n = 26, mean (standard deviation)): 6.57 h | half-life ([1]; both, human, plasma, oral, t1/2, pravastatin 40 mg (cocktail) + filgotinib 200 mg once daily, n = 26, median (Q1-Q3)): 5.6 h | increase in Cmax with filgotinib coadministration relative to statin alone [1]: 25% | AUClast GLSM Ratio (90% CI) ([1]; pravastatin + filgotinib vs pravastatin alone): 1.22 (1.05‐1.41)

O=C(Nc1nc2cccc(-c3ccc(CN4CCS(=O)(=O)CC4)cc3)n2n1)C1CC1 [Filgotinib]
participants with treatment‐emergent AE related to study drug, n (%) [2]: 8 (30.8%) | headache, n [%] ([2]; all mild or moderate): 5 [19.2%] | nausea, n [%] ([2]; all mild or moderate): 3 [11.5%] | accumulation in plasma following multiple once-daily dosing of filgotinib [4]: does not accumulate | interaction with cytochrome P450 enzymes or UGTs [5]: do not interact | effect on QT interval [6]: not affect QT interval

Nc1nc2cccc(-c3ccc(CN4CCS(=O)(=O)CC4)cc3)n2n1 [GS‐829845]
reduced potency relative to filgotinib [7]: ≈ 10 fold | time to achieve steady-state plasma concentrations ([4]; multiple once-daily dosing of filgotinib): ≈ 4 days | accumulation in plasma following multiple once-daily dosing of filgotinib [4]: approximately 2 fold | interaction with cytochrome P450 enzymes or UGTs [5]: do not interact | effect on QT interval [6]: not affect QT interval
